Source: patent US6602824B1, “Herbicidal composition and a method of using a naturally-occurring organic compound as a herbicide” (Greener Pastures Development Corp., priority 1999, dated 2003)
Counter-ions that a name gives are not always drawn.

Assays:
rats [1] = assay: LD50, single oral dose administered to rats; details: orally administered to rats; versus sodium chloride
rats [2] = details: orally administered to rats; cited from earlier work

For `C[N+](C)(C)CC(=O)[O-]` [glycine betaine, 1-carboxy-N,N,N-trimethylmethanaminium inner salt], the “toxicity relative to ordinary table salt, as reflected by the oral rat LD50” value (rats [1]) is given as “more than three times less toxic” and the LD50 (rats [2]) is given as “about 11,204 mg per kilogram of rat body we”.
